Experimental data reported in patent US9714231B2, “Pyrrolidine GPR40 modulators” (BRISTOL-MYERS SQUIBB COMPANY, priority 2012, dated 2017).
pEC50: −log10 of the molar value. Where a name gives a salt, the structure may show the parent alone. Read-outs that look alike come from different tables or passages of the source.

Columns and labels:
[1] = target: T1, human GPR40 (Homo sapiens, UniProt O14842); assay: FDSS-based intracellular calcium assay (Human GRP40 in vitro assay); assay type: cell-based; parameters: 3xFLAG; expressed in transfected cells; details: cells expressing GPR40, intracellular Ca2+ response, FDSS reader; read-out: hGPR40 EC50
T1 sequence (O14842 whole entry): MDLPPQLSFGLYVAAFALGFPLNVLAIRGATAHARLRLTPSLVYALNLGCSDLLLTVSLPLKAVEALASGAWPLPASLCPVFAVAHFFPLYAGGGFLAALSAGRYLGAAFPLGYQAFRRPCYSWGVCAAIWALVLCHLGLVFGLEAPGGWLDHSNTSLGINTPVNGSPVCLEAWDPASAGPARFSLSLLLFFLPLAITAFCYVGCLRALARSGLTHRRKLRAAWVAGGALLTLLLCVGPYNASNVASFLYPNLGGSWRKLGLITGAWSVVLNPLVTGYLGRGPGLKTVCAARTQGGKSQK
Summary of the method: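 GPR40-expressing cells, plated overnight in serum-free phenol red-free DMEM, loaded with Fluo-3 in HBSS with 1.7 mM probenecid for 30 min at 37° C. Compounds in DMSO, diluted in assay buffer, added as 3× solutions; intracellular Ca^2+ response read on FDSS.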

[2] = target: T1, human GPR40

SMILES	pEC50 [1]	pEC50 [2]
COc1ccc(C2CCCC2)c(N2CCC(Oc3ccc(N4C[C@H](OC)C[C@@H]4CC(=O)O)cc3)CC2)c1 [Example 61, 2-((2R,4R)-1-(4-(1-(2-Cyclopentyl-5-methoxyphenyl)piperidin-4-yloxy)phenyl)-4-methoxypyrrolidin-2-yl)acetic acid]	6.92	7.80
COc1ccc(CCC(C)(C)C)c(N2CCC(Oc3ccc(N4C[C@H](OC)C[C@@H]4CC(=O)O)cc3)CC2)c1 [Example 62, 2-((2R,4R)-1-(4-(1-(2-(3,3-Dimethylbutyl)-5-methoxyphenyl)piperidin-4-yloxy)phenyl)-4-methoxypyrrolidin-2-yl)acetic acid]	7.05	7.89
CCOc1ccc(F)c(N2CCC(Oc3ccc(N4C[C@H](C(F)(F)F)C[C@@H]4CC(=O)O)cc3)CC2)c1 [Example 85, 2-((2R,4R)-1-(4-((1-(5-Ethoxy-2-fluorophenyl)piperidin-4-yl)oxy)phenyl)-4-(trifluoromethyl)pyrrolidin-2-yl)acetic acid]	6.49	7.15
COc1cc(N2CCC(Oc3ccc(N4C[C@H](OC)[C@@H](C)[C@@H]4CC(=O)O)cn3)C(C)C2)c(Cl)cn1 (stereo partly drawn) [Example 91, 2-((2S,3S,4R)-1-(6-(((3,4-trans)-1-(5-Chloro-2-methoxypyridin-4-yl)-3-methylpiperidin-4-yl)oxy)pyridin-3-yl)-4-methoxy-3-methylpyrrolidin-2-yl)acetic acid, HCl]	6.72	7.74
COc1cc(N2CCC(Oc3ccc(N4C[C@H](OC)C[C@@H]4CC(=O)O)cc3)CC2)c(F)cn1 [Example 96, 2-((2R,4R)-1-(4-((1-(5-Fluoro-2-methoxypyridin-4-yl)piperidin-4-yl)oxy)phenyl)-4-methoxypyrrolidin-2-yl)acetic acid, diethylammonium salt]	6.08	6.28
COc1cc(N2CCC(Oc3ccc(N4C[C@H](OC)[C@@H](C)[C@@H]4CC(=O)O)cc3F)C(C)C2)c(Cl)cn1 (stereo partly drawn) [Example 98, 2-((2S,3S,4R)-1-(4-(((3,4-trans)-1-(5-Chloro-2-methoxypyridin-4-yl)-3-methylpiperidin-4-yl)oxy)-3-fluorophenyl)-4-methoxy-3-methylpyrrolidin-2-yl)acetic acid]	6.99	7.00
COc1cc(N2CCC(Oc3ccc(N4C[C@H](OC)[C@@H](C)[C@@H]4CC(=O)O)cc3F)CC2)c(Cl)cn1 [Example 99, 2-((2S,3S,4R)-1-(4-((1-(5-Chloro-2-methoxypyridin-4-yl)piperidin-4-yl)oxy)-3-fluorophenyl)-4-methoxy-3-methylpyrrolidin-2-yl)acetic acid]	6.54	6.54
COc1cc(N2CCC(Cc3ccc(N4C[C@H](OC)C[C@@H]4CC(=O)O)cc3)CC2)c(Cl)cn1 [Example 102, 2-((2R,4R)-1-(4-((1-(5-Chloro-2-methoxypyridin-4-yl)piperidin-4-yl)methyl)phenyl)-4-methoxypyrrolidin-2-yl)acetic acid]	6.02	6.02
COc1cc(N2CCC(Oc3ccc(N4C[C@H](O)[C@@H](C)[C@@H]4CC(=O)O)c(F)c3)C(C)C2)c(Cl)cn1 (stereo partly drawn) [Example 115, 2-((2S,3S,4R)-1-(4-(((3,4-trans)-1-(5-Chloro-2-methoxypyridin-4-yl)-3-methylpiperidin-4-yl)oxy)-2-fluorophenyl)-4-hydroxy-3-methylpyrrolidin-2-yl)acetic acid]	5.79	5.80
CCOc1ccc(F)c(N2CCC(Oc3ccc(N4C[C@H](OC)[C@@H](C)[C@@H]4CC(=O)O)cn3)C(C)C2)c1 (stereo partly drawn) [Example 117, 2-((2S,3S,4R)-1-(6-(((3,4-trans)-1-(5-Ethoxy-2-fluorophenyl)-3-methylpiperidin-4-yl)oxy)pyridin-3-yl)-4-methoxy-3-methylpyrrolidin-2-yl)acetic acid, HCl]	6.85	7.85
COc1cc(N2CCC(Oc3ccc(N4C[C@H](OC)[C@@H](C)[C@@H]4CC(=O)O)cc3)C(C)C2)c(Cl)cn1 (stereo partly drawn) [Example 119, 2-((2S,3S,4R)-1-(4-(((3,4-trans)-1-(5-Chloro-2-methoxypyridin-4-yl)-3-methylpiperidin-4-yl)oxy)phenyl)-4-methoxy-3-methylpyrrolidin-2-yl)acetic acid, HCl]	7.12	7.96
CCOc1ccc(F)c(N2CCC(Oc3ccc(N4C[C@H](OC)[C@@H](C)[C@@H]4CC(=O)O)cc3)CC2)c1 [Example 121, 2-((2S,3S,4R)-1-(4-((1-(5-Ethoxy-2-fluorophenyl)piperidin-4-yl)oxy)phenyl)-4-methoxy-3-methylpyrrolidin-2-yl)acetic acid, TFA]	6.85	7.38
CCOc1ccc(F)c(N2CCC(Oc3ccc(N4C[C@H](c5ccc(OC)nc5)C[C@@H]4CC(=O)O)cc3)CC2)c1 [Example 123, 2-((2R,4S)-1-(4-((1-(5-Ethoxy-2-fluorophenyl)piperidin-4-yl)oxy)phenyl)-4-(6-methoxypyridin-3-yl)pyrrolidin-2-yl)acetic acid, TFA]	6.57	7.29
CCOc1ccc(F)c(N2CCC(Oc3ccc(N4C[C@H](Cc5cccc(OC)c5)C[C@@H]4CC(=O)O)cc3)CC2)c1 [Example 124, 2-((2R,4R)-1-(4-((1-(5-Ethoxy-2-fluorophenyl)piperidin-4-yl)oxy)phenyl)-4-(3-methoxybenzyl)pyrrolidin-2-yl)acetic acid, TFA]	6.42	7.33
COc1cc(N2CCC(Oc3ccc(N4C[C@H](OC)C[C@@H]4CC(=O)O)cn3)C(C)C2)c(Cl)cn1 (stereo partly drawn) [Example 132, 2-((2R,4R)-1-(6-(((3,4-trans)-1-(5-Chloro-2-methoxypyridin-4-yl)-3-methylpiperidin-4-yl)oxy)pyridin-3-yl)-4-methoxypyrrolidin-2-yl)acetic acid]	6.60	7.26
COc1cc(N2CCC(Oc3ccc(N4C[C@H](C(F)(F)F)C[C@@H]4CC(=O)O)cn3)C(C)C2)c(Cl)cn1 (stereo partly drawn) [Example 133, 2-((2R,4R)-1-(6-(((3,4-trans)-1-(5-Chloro-2-methoxypyridin-4-yl)-3-methylpiperidin-4-yl)oxy)pyridin-3-yl)-4-(trifluoromethyl)pyrrolidin-2-yl)acetic acid]	6.42	7.31
COc1cc(N2CCC(Oc3ccc(N4C[C@H](C(F)(F)F)C[C@@H]4CC(=O)O)c(F)c3)C(C)C2)c(Cl)cn1 (stereo partly drawn) [Example 138]	6.72	7.57
COc1cc(N2CCC(Oc3ccc(N4C[C@H](OC)C[C@@H]4CC(=O)O)c(F)c3)C(C)C2)c(Cl)cn1 (stereo partly drawn) [Example 139, 2-((2R,4R)-1-(4-((3,4-trans)-1-(5-Chloro-2-methoxypyridin-4-yl)-3-methylpiperidin-4-yloxy)-2-fluorophenyl)-4-methoxypyrrolidin-2-yl)acetic acid]	6.64	7.66
COc1cc(N2CCC(Oc3ccc(N4C[C@H](C(F)(F)F)C[C@@H]4CC(=O)O)c(F)c3F)C(C)C2)c(Cl)cn1 (stereo partly drawn) [Example 140, 2-((2R,4R)-1-(4-((3,4-trans)-1-(5-Chloro-2-methoxypyridin-4-yl)-3-methylpiperidin-4-yloxy)-2,3-difluorophenyl)-4-(trifluoromethyl)pyrrolidin-2-yl)acetic acid]	6.60	7.14
COc1cc(N2CCC(Oc3ccc(N4C[C@H](OC)C[C@@H]4CC(=O)O)cc3F)C(C)C2)c(Cl)cn1 (stereo partly drawn) [Example 142, 2-((2R,4R)-1-(4-((3,4-trans)-1-(5-Chloro-2-methoxypyridin-4-yl)-3-methylpiperidin-4-yloxy)-3-fluorophenyl)-4-methoxypyrrolidin-2-yl)acetic acid, TFA]	6.57	7.51
COc1cc(N2CCC(Oc3cc(F)c(N4C[C@H](OC)C[C@@H]4CC(=O)O)c(F)c3)C(C)C2)c(Cl)cn1 (stereo partly drawn) [Example 144, 2-((2R,4R)-1-(4-((3,4-trans)-1-(5-Chloro-2-methoxypyridin-4-yl)-3-methylpiperidin-4-yloxy)-2,6-difluorophenyl)-4-methoxypyrrolidin-2-yl)acetic acid, TFA]	5.47	5.60
